Source: patent publication US5731285A, “Tachiquinine antagonist tricyclic compounds, preparation of same and pharmaceutical compositions containing such compounds” (A. Menatini Industrie Farmaceutiche, priority 1992, dated 1998)
Positions of bridges follow the written chain, without caps; N, C: chain ends. Non-standard residues stand in square brackets, D forms with d. Residues, ends and D or L forms follow the SMILES beside them. Dap = NC[C@H](N)C(=O)O

Biological target: T1, neurokinin A receptor (receptor NK-2) (Oryctolagus cuniculus, UniProt P79218)
T1 construct: The said preparation consisted of isolated rabbit pulmonary artery; from tissue; host or cells: isolated rabbit pulmonary artery
T1 sequence (P79218 1-384): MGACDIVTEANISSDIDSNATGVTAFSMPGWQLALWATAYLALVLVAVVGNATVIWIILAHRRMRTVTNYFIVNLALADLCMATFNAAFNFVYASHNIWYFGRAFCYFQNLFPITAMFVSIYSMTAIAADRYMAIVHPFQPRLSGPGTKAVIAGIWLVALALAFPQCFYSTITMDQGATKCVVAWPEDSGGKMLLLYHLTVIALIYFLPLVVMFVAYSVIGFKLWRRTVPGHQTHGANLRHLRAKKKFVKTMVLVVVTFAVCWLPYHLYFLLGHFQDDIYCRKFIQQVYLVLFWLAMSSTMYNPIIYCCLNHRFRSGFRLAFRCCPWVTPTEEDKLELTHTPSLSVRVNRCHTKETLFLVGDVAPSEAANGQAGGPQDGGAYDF
Experiment: inhibition of NKA-induced contraction in isolated rabbit pulmonary artery
Assay type: cell-based
Conditions: compound, NKA 3 nM
Method: The capacity of the products described in the present invention to interact with the neurokinin A receptor as agonists or antagonists was assessed using a preparation characterized by the fact that the biological response produced by tachykinins and correlated peptides was exclusively determined by the neurokinin A receptor (receptor NK-2). The said preparation consisted of isolated rabbit pulmonary artery affected by a dose-dependentcontraction brought about by tachykinins (Rovero et al., Neuropeptides, 13, 263-270, 1989). The determination of the peptide activity in the test preparation was based on the use of an NKA concentration (3 nM) causing a response equal to 45% of max. response. The peptides considered herein were added to the preparation in growing concentrations. Their activity was assessed as inhibition of response to NKA.

For `CSCC[C@@H]1NC(=O)[C@H](CC(C)C)NC(=O)[C@@H]2CNC(=O)C[C@H](NC1=O)C(=O)N[C@@H](Cc1c[nH]c3ccccc13)C(=O)N[C@@H](Cc1ccccc1)C(=O)N2` [Compound 1] (cyclo(DWF[Dap]LM); lactam 1-4), the “inhibition of response to neurokinins A” value was 100%.
